Holding throughout (format): in vivo
The subject of test [1] is cattle tick larvae (Rhipicephalus microplus), strain Parkhurst, resistant against synthetic pyrethroids. The experiment in a line: Rhipicephalus (Boophilus) microplus in-vitro contact test, larval cattle tick. The following applies: 5 μg/cm^2 (=500 g/ha), after 48 hours. On the procedure:
Rhipicephalus (Boophilus) Microplus—In-Vitro Contact Tests Larval Cattle Tick (Strain Parkhurst, Resistant Against Synthetic Pyrethroids)
9 mg compound is solved in 1 mL acetone and diluted with acetone to the desired concentration. 250 μL of the test solution is filled in 25 mL glass test tubes and homogeneously distributed on the inner walls by rotation and tilting on a shaking device (2 h at 30 rpm). With a compound concentration of 900 ppm, an inner surface of 44.7 cm^2 and a homogeneous distribution, a dose of 5 μg/cm^2 is achieved.
After the solvent has evaporated, each test tube is filled with 20-50 cattle tick larvae (Rhipicephalus microplus), closed with a perforated lid and incubated in a horizontal position at 85% relative humidity and 27° C. in an incubator. After 48 hours efficacy is determined. The larvae are patted on the ground of the tubes and negative geotactic behavior is recorded.
An efficacy of 100% means all larvae are dead or moribund; 0% means no larvae are dead or moribund.

For test [2], the system named is larvae of the banded cucumber beetle (Diabrotica balteata). The experiment in a line: Diabrotica balteata spray test. The following applies: 168 h, 100 g/ha (=32 μg/well), after 7 days, read-out: efficacy (seedling growth). In short, it runs like this: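 Germinated wheat seeds on agar (5 per well) were sprayed with compound formulated in acetone/DMF and diluted in water with 1000 ppm emulsifier. Each unit was then infested with 10–20 larvae. Efficacy % was scored after 7 days as seedling growth relative to an untreated, uninfested control (100% = normal growth).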

Test [3] relates to green peach aphid (Myzus persicae). The experiment in a line: Myzus persicae spray test (MYZUPE). The following applies: 120 h, 100 g/ha, after 5 days. On the procedure:
Myzus persicae—Spray Test
• Solvent: 78.0 parts by weight acetone • 1.5 parts by weight dimethylformamide • Emulsifier: alkylarylpoly glycol ether
(§1) To produce a suitable preparation of active compound, 1 part by weight of active compound is mixed with the stated amount of solvents and is diluted with water, containing an emulsifier concentration of 1000 ppm, to the desired concentration. Further test concentrations are prepared by dilution with emulsifier containing water.
Chinese cabbage (Brassica pekinensis) leaf disks infected with all instars of the green peach aphid (Myzus persicae), are sprayed with a preparation of the active ingredient of the desired concentration.
After 5 days mortality in % is determined. 100% means all aphids have been killed and 0% means none of the aphids have been killed.
Myzus persicae—Spray Test (MYZUPE)
• Solvent: 78.0 parts by weight acetone • 1.5 parts by weight dimethylformamide • Emulsifier: alkylarylpolyglycol ether
After the specified period of time, mortality in % is determined. 100% means all aphids have been killed and 0% means none of the aphids have been killed.

The subject of test [4] is larvae of the southern green stink bug (Nezara viridula). The experiment in a line: whole plant or invertebrate. Particulars: 96 h. In short, it runs like this:
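Compound in acetone/DMF was diluted in water with 1000 ppm alkylarylpolyglycol ether emulsifier. Barley plants were sprayed with it, then infested with Nezara viridula larvae. Mortality % was scored after 4 days (100% = all killed).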

The test system of test [5] is brown planthopper (Nilaparvata lugens). The experiment in a line: Nilaparvata lugens spray test. The following applies: 96 h. On the procedure:
Nilaparvata lugens—Spray Test
• Solvent: 78.0 parts by weight of acetone • 1.5 parts by weight of dimethylformamide • Emulsifier: alkylarylpolyglycol ether
as §1
Rice plants (Oryza sativa) are sprayed with a preparation of the active ingredient of the desired concentration and the plants are infested with the brown planthopper (Nilaparvata lugens).
After 4 days mortality in % is determined. 100% means all planthoppers have been killed and 0% means none of the planthoppers have been killed.

The test system of test [6] is fall armyworm larvae (Spodoptera frugiperda). The experiment in a line: whole plant or invertebrate. Particulars: 168 h. In short, it runs like this:
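Maize leaf sections sprayed with compound in acetone/DMF with alkylarylpolyglycol ether emulsifier diluted in water, then infested with fall armyworm larvae once dry. Mortality (%) scored after 7 days; 100% = all caterpillars killed.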

As usually defined, the mortality is the share of the test organisms that died.

Turning to `C[C@H](NC(=O)c1cc(OC(F)(F)F)cc(OC(F)(F)F)c1)c1nc(C2CC2)nn1-c1cc(C#N)ncn1` [I-37], the “efficacy (larvae dead or moribund)” value in test [1] came to 100%. In test [2], the pest or weed control at 32 µg/disc, 100 g/ha is 80%.
For the molecule `C[C@H](NC(=O)c1cc(OC(F)(F)F)cc(C(C)(C)F)c1)c1ncnn1-c1cc(C#N)ncn1` [I-142], the pest or weed control at 32 µg/disc, 100 g/ha in test [2] worked out at 100%. Moreover, the mortality at 100 g/ha in test [3] and in test [6] was 100% each time. The mortality at 500 g/ha in test [4] and in test [5] was 100% throughout.
In the case of `C[C@H](NC(=O)c1cc(C#N)cc(OC(F)(F)F)c1)c1ncnn1-c1cc(C(N)=O)ncn1` [I-121], the pest or weed control at 32 µg/disc, 100 g/ha in test [2] was found to be 100%. Besides, the mortality at 100 g/ha in test [3] was found to be 90%; in test [4], 100%; in test [6], 100%. The mortality at 500 g/ha in test [4] and in test [5] was 100% each time.
For the molecule `Cc1nc([C@H](C)NC(=O)c2cccc(OC(F)(F)F)c2)n(-c2cc(C(N)=O)ncn2)n1` [I-101], in test [2], the pest or weed control at 32 µg/disc, 100 g/ha turned out to be 100%. The mortality at 100 g/ha in test [3] was 90%; in test [6], 100%. Further, the mortality at 500 g/ha in test [4] and in test [5] was 100% throughout.
`C[C@H](NC(=O)c1cccc(S(=O)(=O)C(F)(F)F)c1)c1ncnn1-c1cc(C(N)=O)ncn1` [I-140]: the pest or weed control at 32 µg/disc, 100 g/ha in test [2] came to 100%. The mortality at 100 g/ha in test [3] and in test [6] was 100% throughout. Further, the mortality at 500 g/ha in test [4] is 100%; in test [5] it was 90%.
As for `C[C@H](NC(=O)c1cc(Cl)nc(C2(C#N)CC2)c1)c1ncnn1-c1cc(C#N)ncn1` [I-35, 2-chloro-6-(1-cyanocyclopropyl)-N-[(1S)-1-[2-(6-cyanopyrimidin-4-yl)-1,2,4-triazol-3-yl]ethyl]pyridine-4-carboxamide], in test [1], the “efficacy (larvae dead or moribund)” value came to 100%. In test [2], the pest or weed control at 32 µg/disc, 100 g/ha amounted to 100%. This molecule showed a mortality at 100 g/ha in test [6] of 100%.
Turning to `Cc1nc([C@H](C)NC(=O)c2cc(C(F)(F)F)cc(C(F)(F)F)c2)n(-c2cc(C(N)=O)ncn2)n1` [I-136], the pest or weed control at 32 µg/disc, 100 g/ha in test [2] worked out at 100%. Further, the figures for the mortality at 100 g/ha in test [3] and in test [6] were 90% and 100%, respectively. Besides, the mortality at 500 g/ha in test [4] and in test [5] was 100% each time.
Regarding `Cc1nc([C@H](C)NC(=O)c2cc(OC(F)F)cc(OC(F)F)c2)n(-c2cc(C#N)ncn2)n1` [I-22], the “efficacy (larvae dead or moribund)” value in test [1] amounted to 100%. In test [2], the pest or weed control at 32 µg/disc, 100 g/ha is 100%. Further, the mortality at 500 g/ha in test [4] was 100%. The molecule further yielded a mortality at 100 g/ha in test [6] of 100%.
As for `C[C@H](NC(=O)c1cc(OC(F)(F)F)cc(S(C)(=O)=O)c1)c1ncnn1-c1cc(C(N)=O)ncn1` [I-82], the pest or weed control at 32 µg/disc, 100 g/ha in test [2] amounted to 100%. Further, the mortality at 100 g/ha worked out at 90% in test [3] and 100% in test [6]. Further, the mortality at 500 g/ha in test [4] and in test [5] was 100% in each case.
Turning to `C[C@H](NC(=O)c1cc(C(F)(F)F)cc(S(C)(=O)=O)c1)c1ncnn1-c1cc(C(N)=O)ncn1` [I-78], the pest or weed control at 32 µg/disc, 100 g/ha in test [2] came out at 100%. The mortality at 100 g/ha is 90% in test [3] and 100% in test [6]. In addition, the mortality at 500 g/ha in test [4] and in test [5] was 100% in each case.
Regarding `CNC(=O)c1cc(-n2ncnc2[C@H](C)NC(=O)c2cc(OC(F)F)cc(OC(F)F)c2)ncn1` [I-94], the pest or weed control at 32 µg/disc, 100 g/ha in test [2] was 100%. Besides, the mortality at 100 g/ha in test [3] and in test [6] was 100% in each case. Moreover, the mortality at 500 g/ha in test [4] and in test [5] was 100% in each case.
For the molecule `C[C@H](NC(=O)c1cc(Cl)cc(C#N)c1)c1ncnn1-c1cc(C(N)=O)ncn1` [I-125], the pest or weed control at 32 µg/disc, 100 g/ha in test [2] is 100%. The mortality at 100 g/ha in test [3] was determined as 70%; in test [4], 100%; in test [6], 100%. Besides, the mortality at 500 g/ha in test [4] and in test [5] was 100% throughout.
Regarding `C[C@H](NC(=O)c1cc(OC(F)(F)F)cc(C2(C#N)CC2)c1)c1ncnn1-c1cc(C(N)=O)ncn1` [I-120], in test [2], the pest or weed control at 32 µg/disc, 100 g/ha worked out at 100%. For the same molecule, the values for the mortality at 100 g/ha in test [3], in test [4] and in test [6] were 90%, 100% and 100%, respectively. Moreover, the mortality at 500 g/ha in test [4] and in test [5] was 100% throughout.
Consider `CNC(=O)c1cc(-n2ncnc2[C@H](C)NC(=O)c2cc(Br)cc(OC(F)F)c2)ncn1` [I-72], for which the pest or weed control at 32 µg/disc, 100 g/ha in test [2] is 80%. The mortality at 100 g/ha in test [3] was found to be 90%; in test [6] it was 100%. In addition, the mortality at 500 g/ha in test [4] and in test [5] was 100% throughout.
Take `CNC(=O)c1cc(-n2ncnc2[C@H](C)NC(=O)c2cc(C(F)(F)F)cc(S(C)(=O)=O)c2)ncn1` [I-81]: in test [2], the pest or weed control at 32 µg/disc, 100 g/ha came out at 100%. Moreover, the mortality at 100 g/ha in test [3] and in test [6] was 100% throughout. In addition, the mortality at 500 g/ha in test [4] and in test [5] was 100% each time.
In the case of `C[C@H](NC(=O)c1cc(Cl)cc(S(=O)(=O)C(F)F)c1)c1ncnn1-c1cc(C(N)=O)ncn1` [I-118], the pest or weed control at 32 µg/disc, 100 g/ha in test [2] amounted to 100%. Further, the mortality at 100 g/ha in test [3] amounted to 90%; in test [4], 100%; in test [6], 100%. The mortality at 500 g/ha in test [4] and in test [5] was 100% throughout.
In the case of `CNC(=O)c1cc(-n2ncnc2[C@H](C)NC(=O)c2cc(OC(F)(F)F)cc(S(C)(=O)=O)c2)ncn1` [I-83], the pest or weed control at 32 µg/disc, 100 g/ha in test [2] stood at 100%. Also, the mortality at 100 g/ha in test [3] and in test [6] was 100% in each case. The mortality at 500 g/ha in test [4] and in test [5] was 100% throughout.
As for `CNC(=O)c1nccc(-n2ncnc2[C@H](C)NC(=O)c2cc(OC(F)(F)F)cc(OC(F)(F)F)c2)n1` [I-116], the pest or weed control at 32 µg/disc, 100 g/ha in test [2] was determined as 100%. For the same molecule, the mortality at 100 g/ha in test [3], in test [4] and in test [6] was 100% throughout. Besides, the mortality at 500 g/ha in test [4] and in test [5] was 100% in each case.
In the case of `C[C@H](NC(=O)c1cc(F)cc(OC(F)F)c1)c1ncnn1-c1cc(C(N)=O)ncn1` [I-79], the pest or weed control at 32 µg/disc, 100 g/ha in test [2] is 100%. Further, the mortality at 100 g/ha in test [3] and in test [6] was 100% each time. The mortality at 500 g/ha in test [4] and in test [5] was 100% in each case.
With `C[C@H](NC(=O)c1cccc(C(F)(F)F)c1)c1ncnn1-c1cc(C(N)=O)ncn1` [I-92], the pest or weed control at 32 µg/disc, 100 g/ha in test [2] worked out at 100%. The mortality at 100 g/ha in test [3] and in test [6] was 100% in each case. The mortality at 500 g/ha in test [4] and in test [5] was 100% each time.
